Laboratory results: ChEMBL document CHEMBL5365457, “Selective HDAC3 Inhibitors with Potent In Vivo Antitumor Efficacy against Triple-Negative Breast Cancer” (J Med Chem, 2023)
The source made the active and inactive calls. The calls are words filed in the database; no cut-off is given here.

Experiments:
4T1 [1] = assay: Antitumor activity against mouse 4T1 cells implanted in BALB/c mouse assessed as reduction in tumor volume at 50 to 100 mg/kg, ip administered 5 times a week for 21 days; type: functional, organism-based; details: dose 50-100 mg/kg, time 21.0 day
[2] = Cytotoxicity against human HCEC cells assessed as inhibition of cell growth incubated for 72 hrs by MTT assay; type: toxicity, cell-based; details: human, HCEC cells
4T1 [3] = assay: Antitumor activity against mouse 4T1 cells implanted in BALB/c mouse assessed as reduction in tumor weight at 5 mg/kg, ip administered 5 times a week for 21 days; type: functional; details: time 21 day
[4] = AUMC (0 to infinity) in Wistar rat at 5 mg/kg, ip measured upto 24 hrs by HPLC analysis; type: ADME, organism-based; details: in vivo
4T1 [5] = assay: Induction of apoptosis in mouse 4T1 cells assessed as increase caspase 3/7 level at 1 uM by Western blot analysis; type: functional, cell-based
[6] = Selectivity ratio of IC50 for cytotoxicity against human HCEC cells assessed as inhibition of cell growth to IC50 for cytotoxicity against human MDA-MB-453 cells assessed as inhibition of cell growth; type: toxicity, cell-based; details: HCEC cells versus MDA-MB-453 cells, read-out: Ratio IC50
4T1 [7] = assay: Antitumor activity against mouse 4T1 cells implanted in BALB/c mouse assessed as reduction in tumor volume at 15 mg/kg, ip administered 5 times a week for 21 days (reference value: 52.05+/-12.35 mm3); type: functional; details: time 21 day
[8] = Toxicity against BALB/c mouse implanted with mouse 4T1 cells assessed as body weight gain at 5 to 15 mg/kg,ip administered 5 times a week for 21 days; type: organism-based; details: in vivo, 504 h, dose 5-15 mg/kg, time 21 day
4T1 [9] = assay: Induction of apoptosis in mouse 4T1 cells at 38.6 uM incubated for 72 hrs by annexin/PI staining based flow cytometry analysis (reference value: 1.35%); type: functional
MDA-MB-231 = assay: Cytotoxicity against human MDA-MB-231 cells assessed as inhibition of cell growth incubated for 72 hrs by MTT assay; type: functional, cell-based; details: MDA-MB-231, 72 h
[10] = Toxicity in BALB/c mouse implanted with mouse 4T1 cells assessed as kidney damage at 5 to 15 mg/kg, ip measured after 21 days by H and E staining based assay; type: organism-based; details: in vivo, 504 h, dose 5-15 mg/kg, time 21 day
[11] = Toxicity in BALB/c mouse implanted with mouse 4T1 cells assessed as spleen fibrosis at 5 to 15 mg/kg, ip measured after 21 days; type: organism-based; details: in vivo, 504 h, dose 5-15 mg/kg, time 21 day
4T1 [12] = assay: Antitumor activity against mouse 4T1 cells implanted in BALB/c mouse assessed as reduction in tumor growth at 5 to 15 mg/kg, ip administered 5 times a week for 21 days; type: functional, organism-based; details: dose 5-15 mg/kg, time 21.0 day
4T1 [13] = assay: Antitumor activity against mouse 4T1 cells implanted in BALB/c mouse assessed as tumor growth inhibition at 15 mg/kg, ip measured on day 14; type: functional; details: 4T1, 336 h, time 14 day, read-out: TGI
[14] = Toxicity against BALB/c mouse implanted with mouse 4T1 cells assessed as body weight loss at 5 to 15 mg/kg,ip administered 5 times a week for 21 days; type: organism-based; details: in vivo, 504 h, dose 5-15 mg/kg, time 21 day
4T1 [15] = assay: Antitumor activity against mouse 4T1 cells implanted in BALB/c mouse assessed as tumor growth inhibition at 5 mg/kg, ip measured on day 21; type: functional; details: 4T1, 504 h, time 21 day, read-out: TGI
[16] = Toxicity in BALB/c mouse implanted with mouse 4T1 cells assessed as spleen damage at 5 to 15 mg/kg, ip measured after 21 days by H and E staining based assay; type: organism-based; details: in vivo, 504 h, dose 5-15 mg/kg, time 21 day
4T1 [17] = assay: Antitumor activity against mouse 4T1 cells implanted in BALB/c mouse assessed as tumor growth inhibition at 15 mg/kg, ip measured on day 7; type: functional; details: 4T1, 168 h, time 7 day, read-out: TGI
[18] = Selectivity ratio of IC50 for cytotoxicity against human MCF-10A cells assessed as inhibition of cell growth to IC50 for cytotoxicity against human MDA-MB-231 cells assessed as inhibition of cell growth; type: toxicity, cell-based; details: MCF-10A cells versus MDA-MB-231 cells, read-out: Ratio IC50
Histone deacetylase 3 = Histone deacetylase 3 (Homo sapiens, UniProt O15379); assay: Inhibition of human recombinant HDAC3 at 1 uM measured after 30 mins by fluorescence based microplate assay relative to control
Chain of Histone deacetylase 3 (O15379 whole entry): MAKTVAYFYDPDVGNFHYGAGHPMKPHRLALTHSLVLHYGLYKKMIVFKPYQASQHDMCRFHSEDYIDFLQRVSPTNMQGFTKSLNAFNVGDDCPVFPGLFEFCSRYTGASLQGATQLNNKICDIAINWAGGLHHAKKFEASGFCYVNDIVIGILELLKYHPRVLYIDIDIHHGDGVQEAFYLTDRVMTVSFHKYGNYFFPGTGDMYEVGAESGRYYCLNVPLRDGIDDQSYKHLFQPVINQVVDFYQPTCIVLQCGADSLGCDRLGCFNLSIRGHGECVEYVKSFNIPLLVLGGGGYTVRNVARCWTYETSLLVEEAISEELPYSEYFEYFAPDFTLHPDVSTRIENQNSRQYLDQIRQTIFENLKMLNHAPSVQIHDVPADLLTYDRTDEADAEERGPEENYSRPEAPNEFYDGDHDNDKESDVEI

Histone deacetylase 1 = Histone deacetylase 1 (Homo sapiens, UniProt Q13547); assay: Inhibition of human recombinant HDAC1 incubated for 15 mins by fluorescence based microplate analysis
Chain of Histone deacetylase 1 (Q13547 whole entry): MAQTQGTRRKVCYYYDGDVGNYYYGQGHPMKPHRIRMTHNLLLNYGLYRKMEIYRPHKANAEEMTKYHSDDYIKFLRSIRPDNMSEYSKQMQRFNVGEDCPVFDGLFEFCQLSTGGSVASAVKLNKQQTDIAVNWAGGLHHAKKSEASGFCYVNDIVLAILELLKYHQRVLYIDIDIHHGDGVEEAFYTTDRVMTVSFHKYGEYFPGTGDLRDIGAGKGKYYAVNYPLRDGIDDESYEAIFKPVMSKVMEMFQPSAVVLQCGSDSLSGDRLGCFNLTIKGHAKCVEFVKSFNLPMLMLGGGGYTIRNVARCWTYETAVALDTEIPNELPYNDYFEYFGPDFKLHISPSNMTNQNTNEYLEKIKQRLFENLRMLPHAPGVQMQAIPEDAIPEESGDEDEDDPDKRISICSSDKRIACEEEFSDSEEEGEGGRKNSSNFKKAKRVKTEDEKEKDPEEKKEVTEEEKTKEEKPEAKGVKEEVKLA

4T1 [19] = assay: Induction of apoptosis in mouse 4T1 cells at 110 nM incubated for 72 hrs by annexin/PI staining based flow cytometry analysis (reference value: 1.35%); type: functional
4T1 [20] = assay: Antitumor activity against mouse 4T1 cells implanted in BALB/c mouse assessed as reduction in tumor weight at 15 mg/kg, ip administered 5 times a week for 21 days; type: functional; details: time 21 day
Histone deacetylase 2 = Histone deacetylase 2 (Homo sapiens, UniProt Q92769); assay: Inhibition of human recombinant HDAC2 incubated for 30 mins by fluorescence based microplate analysis
Chain of Histone deacetylase 2 (Q92769 whole entry): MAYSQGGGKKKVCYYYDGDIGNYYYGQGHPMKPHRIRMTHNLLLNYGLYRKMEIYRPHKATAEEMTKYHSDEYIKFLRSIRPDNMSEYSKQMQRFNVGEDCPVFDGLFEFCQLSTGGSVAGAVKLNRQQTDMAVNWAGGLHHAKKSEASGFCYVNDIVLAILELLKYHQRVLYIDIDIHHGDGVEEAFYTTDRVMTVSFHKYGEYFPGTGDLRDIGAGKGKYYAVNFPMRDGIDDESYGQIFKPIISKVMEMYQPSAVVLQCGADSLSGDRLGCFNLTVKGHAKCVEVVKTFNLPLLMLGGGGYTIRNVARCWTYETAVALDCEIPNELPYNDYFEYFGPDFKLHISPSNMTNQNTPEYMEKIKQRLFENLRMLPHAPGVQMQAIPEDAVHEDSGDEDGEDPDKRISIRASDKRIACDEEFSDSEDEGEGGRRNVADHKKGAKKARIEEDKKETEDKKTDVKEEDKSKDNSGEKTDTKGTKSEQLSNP

Histone deacetylase 8 = target: T1, Histone deacetylase 8 (Homo sapiens, UniProt Q9BY41); assay: Inhibition of human recombinant HDAC8 incubated for 15 mins by fluorescence based microplate analysis
T1 sequence (Q9BY41 whole entry): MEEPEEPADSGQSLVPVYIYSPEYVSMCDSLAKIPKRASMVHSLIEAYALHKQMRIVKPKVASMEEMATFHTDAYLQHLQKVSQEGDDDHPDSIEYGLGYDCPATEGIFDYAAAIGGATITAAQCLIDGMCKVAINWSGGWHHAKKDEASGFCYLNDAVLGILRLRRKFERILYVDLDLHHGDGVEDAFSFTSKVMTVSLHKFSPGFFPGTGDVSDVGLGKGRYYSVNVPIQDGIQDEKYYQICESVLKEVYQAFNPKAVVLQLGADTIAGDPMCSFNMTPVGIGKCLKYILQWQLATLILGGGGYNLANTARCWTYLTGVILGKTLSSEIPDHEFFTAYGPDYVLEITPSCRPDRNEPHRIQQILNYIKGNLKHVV

[21] = target: T2, Histone deacetylase 3 (Mus musculus) (UniProt O88895); assay: Inhibition of HDAC3 in mouse 4T1 cells assessed as increase in acetylation of H3K9 level at 1 uM incubated for 72 hrs by western blot analysis; type: cell-based
T2 sequence (whole entry): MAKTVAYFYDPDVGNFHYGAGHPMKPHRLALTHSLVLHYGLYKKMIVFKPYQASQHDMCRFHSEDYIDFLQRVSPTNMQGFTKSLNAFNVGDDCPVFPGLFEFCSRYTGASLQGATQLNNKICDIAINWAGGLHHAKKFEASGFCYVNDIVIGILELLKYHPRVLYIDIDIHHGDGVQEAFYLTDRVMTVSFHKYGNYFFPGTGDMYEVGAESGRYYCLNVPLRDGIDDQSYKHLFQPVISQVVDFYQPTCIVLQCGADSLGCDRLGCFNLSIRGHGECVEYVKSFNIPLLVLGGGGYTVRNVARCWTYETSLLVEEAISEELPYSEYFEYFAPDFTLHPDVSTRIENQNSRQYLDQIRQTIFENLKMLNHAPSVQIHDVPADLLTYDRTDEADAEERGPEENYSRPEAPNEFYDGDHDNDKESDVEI

## CCCNNC(=O)c1cnc(NCc2ccc(OC)cc2)cn1
4T1 [1]
  Activity: Active
[2]
  IC50 at 72 h: 212000 nM
4T1 [3]
  Activity: 0.65 g
[4]
  AUMC: 29.08 ug/ml.hr^2
4T1 [5]
  Activity: Active
[6]
  selectivity ratio: 286
4T1 [7]
  Activity: 101.23 mm3
[8]
  Activity: Non-Toxic
4T1 [9]
  Activity: 82.7%
MDA-MB-231
  IC50: 740 nM
[10]
  Activity: Non-Toxic
[11]
  Activity: Non-Toxic
4T1 [12]
  Activity: Active
4T1 [13]
  inhibition in vivo at 15 mg/kg: 97.3%
[14]
  Activity: Non-Toxic
4T1 [15]
  inhibition in vivo at 5 mg/kg: 92.9%
[16]
  Activity: Non-Toxic
4T1 [17]
  inhibition in vivo at 15 mg/kg: 84.9%
[18]
  selectivity ratio: 385
Histone deacetylase 3
  inhibition: > 70%
Histone deacetylase 1
  IC50: 1980 nM
4T1 [19]
  Activity: 36.8%
4T1 [20]
  Activity: 1.78 g
Histone deacetylase 2
  IC50: 1700 nM
Histone deacetylase 8
  IC50: 10700 nM
[21]
  inhibition: Active
